Experimental data: US20240425492A1, “POLYMORPHS AS ERBB INHIBITORS” (Black Diamond Therapeutics, Inc., priority 2021, published 2024)
≈ marks a conversion by molar mass, not a printed value. Where two headings read alike, the source gives them in different places.

Experiments:
[1] = Hygroscopicity by DVS at 25° C.; type: physicochemical; conditions: for Desorp. (%) / Sorp. (%): DVS 25° C.
Method: Dynamic Vapor Sorption (DVS): DVS analysis was performed using Intrinsic. Analysis was performed using parameters as set forth below.
The hygroscopicity for Form C and Form F was examined. See, e.g., Table E.

[2] = Variable relative humidity XRPD experiments for Form F; type: physicochemical
Excerpt: Protocol 9: Variable relative humidity experiment. Form F was investigated by variable humidity XRPD experiments. […] Form L reverted to Form F in >10% RH. […] See Example 8 for more details.
Form F was investigated by variable humidity XRPD experiments.

physchem = conditions: 37 °C, thermodynamic from solid
Method: (§1) 2.01 mg of the free base Form C (equal to 2 mg free base after correction for water content) was weighed into 2 mL vial. 2.09 mg of the free base Form F (equal to 2 mg free base after correction for water content) was weighed into a 2 mL vial. I mL of aqueous media was added, respectively. These suspensions were stirred at 37° C. at a rate of 400 rpm. These suspensions were taken out after 2 h and 24 h, and then centrifuged at 14,000 rpm for 5 minutes. The supernatants were analyzed by HPLC. The pH of the supernatants were tested.

[3] = Bulk stability under accelerated storage conditions (XRPD and HPLC); conditions: Solid state
Excerpt: Solids obtained after bulk stability study were characterized by XRPD and HPLC.

[4] = Solubility study in aqueous media at 37° C. (HPLC of supernatants, pH)
Method: as §1

[5] = 25° C./92.5% RH in an open vial, 2 weeks
[6] = 25° C./92.5% RH in an open vial, 4 weeks
[7] = 40° C./75% RH in an open vial, 2 weeks
[8] = 40° C./75% RH in an open vial, 4 week
[9] = 60° C., tight container, 2 weeks
[10] = 60° C., tight container, 4 weeks
[11] = pH 6.8 (50 mM) phosphate buffer, 37° C.

CN1C[C@H]2C[C@@]2(C#Cc2cc3ncnc(Nc4cccc(Cl)c4F)c3cc2NC(=O)/C=C/CN2CCOCC2)C1 [Form F]
DVS water uptake from 40% RH to 70% RH ([1]; 25° C., dm/dt = 0.002%): 1.1% water uptake from 40% RH to 70% RH
DVS water uptake from 40% RH to 95% RH ([1]; 25° C., dm/dt = 0.002%): 10.2% water uptake from 40% RH to 95% RH
Desorp. (%) ([1]; Relative Humidity 0%, first Desorp.): 0.0%
Sorp. (%) ([1]; Relative Humidity 0%, second Sorp.): 0.0%
Desorp. (%) ([1]; Relative Humidity 10%, first Desorp.): 1.4%
Sorp. (%) ([1]; Relative Humidity 10%, second Sorp.): 1.3%
Desorp. (%) ([1]; Relative Humidity 20%, first Desorp.): 1.9%
Sorp. (%) ([1]; Relative Humidity 20%, second Sorp.): 1.7%
Desorp. (%) ([1]; Relative Humidity 30%, first Desorp.): 3.6%
Sorp. (%) ([1]; Relative Humidity 30%, second Sorp.): 2.1%
Desorp. (%) ([1]; Relative Humidity 40%, first Desorp.): 6.3%
Sorp. (%) ([1]; Relative Humidity 40%, first Sorp.): 2.5%
Desorp. (%) ([1]; Relative Humidity 40%, second Desorp.): 6.4%
Sorp. (%) ([1]; Relative Humidity 40%, second Sorp.): 2.8%
Desorp. (%) ([1]; Relative Humidity 50%, first Desorp.): 8.0%
Sorp. (%) ([1]; Relative Humidity 50%, first Sorp.): 2.8%
Desorp. (%) ([1]; Relative Humidity 50%, second Desorp.): 7.9%
Sorp. (%) ([1]; Relative Humidity 50%, second Sorp.): 3.2%
Desorp. (%) ([1]; Relative Humidity 60%, first Desorp.): 9.4%
Sorp. (%) ([1]; Relative Humidity 60%, first Sorp.): 3.2%
Desorp. (%) ([1]; Relative Humidity 60%, second Desorp.): 9.3%
Sorp. (%) ([1]; Relative Humidity 60%, second Sorp.): 3.7%
Desorp. (%) ([1]; Relative Humidity 70%, first Desorp.): 10.2%
Sorp. (%) ([1]; Relative Humidity 70%, first Sorp.): 3.6%
Desorp. (%) ([1]; Relative Humidity 70%, second Desorp.): 10.0%
Sorp. (%) ([1]; Relative Humidity 70%, second Sorp.): 4.2%
Desorp. (%) ([1]; Relative Humidity 80%, first Desorp.): 11.0%
Sorp. (%) ([1]; Relative Humidity 80%, first Sorp.): 10.4%
Desorp. (%) ([1]; Relative Humidity 80%, second Desorp.): 10.8%
Sorp. (%) ([1]; Relative Humidity 80%, second Sorp.): 10.4%
Desorp. (%) ([1]; Relative Humidity 90%, first Desorp.): 11.8%
Sorp. (%) ([1]; Relative Humidity 90%, first Sorp.): 11.6%
Desorp. (%) ([1]; Relative Humidity 90%, second Desorp.): 11.6%
Sorp. (%) ([1]; Relative Humidity 90%, second Sorp.): 11.4%
Desorp. (%) ([1]; Relative Humidity 95%, first Desorp.): 12.9%
Sorp. (%) ([1]; Relative Humidity 95%, first Sorp.): 12.7%
Desorp. (%) ([1]; Relative Humidity 95%, second Desorp.): 12.2%
Sorp. (%) ([1]; Relative Humidity 95%, second Sorp.): 12.2%
XRPD after DVS test ([1]; DVS at 25° C.): No form change
form conversion in variable humidity XRPD ([2]; 0% RH): converted to a new crystalline form, assigned as Form L
XRPD (form observed) ([2]; 0% RH (12 h), step 8 of humidity sequence): Form L (Only stable in low humidity)
XRPD (form observed) ([2]; 0% RH (24 h), step 9 of humidity sequence): Form L (Only stable in low humidity)
XRPD (form observed) ([2]; 10% RH, step 7 of humidity sequence): Form F
XRPD (form observed) ([2]; 10% RH, step 10 of humidity sequence): Form F
XRPD (form observed) ([2]; 40% RH, step 1 of humidity sequence): Form F
XRPD (form observed) ([2]; 40% RH, step 6 of humidity sequence): Form F
XRPD (form observed) ([2]; 40% RH, step 11 of humidity sequence): Form F
XRPD (form observed) ([2]; 70% RH, step 2 of humidity sequence): Form F
XRPD (form observed) ([2]; 70% RH, step 5 of humidity sequence): Form F
XRPD (form observed) ([2]; 90% RH (3 h), step 3 of humidity sequence): Form F
XRPD (form observed) ([2]; 90% RH (6 h), step 4 of humidity sequence): Form F
2 h Solubility (pH 5): Degradation
24 h Solubility (pH 5): Degradation
2 h Solubility (pH 6.5): Degradation
24 h Solubility (pH 6.5): Degradation
solubility (physchem; pH 1, simulated gastric fluid): > 2000 µg/mL
solubility at 2 h (physchem; pH 1, simulated gastric fluid): > 2000 µg/mL
solubility at 24 h (physchem; pH 1, simulated gastric fluid): > 2000 µg/mL
solubility (physchem; pH 2, simulated gastric fluid): > 2000 µg/mL
solubility at 2 h (physchem; pH 2, simulated gastric fluid): > 2000 µg/mL
solubility at 24 h (physchem; pH 2, simulated gastric fluid): > 2000 µg/mL
solubility (physchem; pH 4.5, aqueous buffer): > 2000 µg/mL
solubility at 2 h (physchem; pH 4.5, aqueous buffer): > 2000 µg/mL
solubility at 24 h (physchem; pH 4.5, aqueous buffer): > 2000 µg/mL
solubility (physchem; pH 6.8, aqueous buffer): ~20 µg/mL (≈ 35.6 µM)
solubility at 2 h (physchem; pH 6.8, aqueous buffer): 20.7 µg/mL (≈ 36.9 µM)
solubility at 24 h (physchem; pH 6.8, aqueous buffer): 19.8 µg/mL (≈ 35.3 µM)
solubility (physchem; water): < 10 µg/mL
solubility at 2 h (physchem; water): 7 µg/mL (≈ 12.5 µM)
solubility at 24 h (physchem; water): 7.5 µg/mL (≈ 13.4 µM)
Bulk (XRPD) [3, 5]: No form change
Purity, Bulk (HPLC) [3, 5]: 95.5%
Bulk (XRPD) [3, 6]: No form change
Purity, Bulk (HPLC) [3, 6]: 94.1%
Bulk (XRPD) [3, 7]: No form change
Purity, Bulk (HPLC) [3, 7]: 94.3%
Bulk (XRPD) [3, 8]: No form change
Purity, Bulk (HPLC) [3, 8]: 91.6%
Bulk (XRPD) [3, 9]: No form change
Purity, Bulk (HPLC) [3, 9]: 90.1%
Bulk (XRPD) [3, 10]: No form change
Purity, Bulk (HPLC) [3, 10]: 82.6%
24 h (pH) of supernatant ([4]; SGF, pH 2.0, 37° C.): pH 3.5
XRPD of residual solid ([4]; Water, 37° C.): Form F
24 h (pH) of supernatant ([4]; Water, 37° C.): pH 7.0
24 h (pH) of supernatant ([4]; pH 1.0 (0.1N HCl), 37° C.): pH 0.9
24 h (pH) of supernatant ([4]; pH 4.5 (50 mM) acetate buffer, 37° C.): pH 4.6
XRPD of residual solid [4, 11]: Form F
24 h (pH) of supernatant [4, 11]: pH 6.7
